ChEMBL document CHEMBL3580652, “Hikiamides A-C, Cyclic Pentadepsipeptides from Fusarium sp. TAMA 456” (J Nat Prod, 2015)
The source made the active and inactive calls. No cut-off for these calls is given here. Where a SMILES comes first, the peptide text is derived from it. [ ]: non-standard residue; d: D form. Hica(2S) = CC(C)C[C@H](O)C(=O)O; NMeL = CN[C@@H](CC(C)C)C(=O)O

Experiments:
ST-13 = test: Induction of mouse ST-13 cell differentiation assessed as increase in accumulation of lipid droplets in cytosol at 2 to 4 uM after 11 days by oil red o staining-based phase contrast microscopic analysis; assay type: functional
[1] = Upregulation of adiponectin mRNA expression in mouse ST-13 cells at 2 uM by RT-qPCR analysis relative to control; assay type: functional, cell-based
[2] = target: T1, Peroxisome proliferator-activated receptor gamma (Homo sapiens) (UniProt P37231); test: Agonist activity at human PPARgamma ligand binding domain fused with GAL4 DNA binding domain transfected in African green monkey COS1 cells assessed as transcriptional activation after 24 hrs by Steady-Glo luciferase reporter gene assay; assay type: cell-based; settings: COS-1
T1 sequence (whole entry): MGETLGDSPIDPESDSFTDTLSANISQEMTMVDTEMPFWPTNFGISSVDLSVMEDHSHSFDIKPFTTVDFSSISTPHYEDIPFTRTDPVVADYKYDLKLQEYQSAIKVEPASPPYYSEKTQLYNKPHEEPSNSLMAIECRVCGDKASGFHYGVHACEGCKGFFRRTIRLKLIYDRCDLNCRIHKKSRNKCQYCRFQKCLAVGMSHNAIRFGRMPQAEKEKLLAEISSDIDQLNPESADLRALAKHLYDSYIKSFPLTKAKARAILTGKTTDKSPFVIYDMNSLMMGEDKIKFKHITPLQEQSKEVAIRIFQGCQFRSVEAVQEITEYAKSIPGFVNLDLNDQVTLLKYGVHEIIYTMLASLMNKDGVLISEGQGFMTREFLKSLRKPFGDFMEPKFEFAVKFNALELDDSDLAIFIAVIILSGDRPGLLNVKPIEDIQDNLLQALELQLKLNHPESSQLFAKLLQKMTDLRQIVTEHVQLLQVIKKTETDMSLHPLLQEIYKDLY

Activity [2]	Structure (SMILES)	Activity (ST-13)	fold change (FC) [1]
Dose-dependent effect	CC(C)C[C@@H]1NC(=O)[C@H](C(C)C)NC(=O)[C@H](CC(C)C)OC(=O)[C@H](Cc2ccccc2)NC(=O)[C@H](Cc2ccccc2)NC1=O (cyclo(FF[Hica(2S)]VL))	Active	5.2
Dose-dependent effect	CC(C)C[C@@H]1OC(=O)[C@H](Cc2ccccc2)NC(=O)[C@H](Cc2ccccc2)NC(=O)[C@H](CC(C)C)N(C)C(=O)[C@H](C(C)C)NC1=O (cyclo(FF[Hica(2S)]V[NMeL]))	Active	13.3
Dose-dependent effect	CC(C)C[C@@H]1OC(=O)[C@H](Cc2ccccc2)NC(=O)[C@H](Cc2c[nH]c3ccccc23)NC(=O)[C@H](CC(C)C)N(C)C(=O)[C@H](C(C)C)NC1=O (cyclo(F[Hica(2S)]V[NMeL]W))	Active	10
